Test results reported in patent publication US20110045982A1, “HERBICIDAL COMPOSITION” (NOF CORPORATION, priority 2009, published 2011).

Tested on: Japanese white rabbits
Conditions: hydrolysate of base compound, 50% in purified water, 0.1 mL instilled, three male rabbits; observed 1, 6, 12 and 24 hr
Procedure: Assuming that the base compound is hydrolyzed in the natural world, the biological reaction of hydrolysate was evaluated by eye irritancy. To be specific, the base compound (10 g) shown in Table 1 was added to 100 mL of water, and the mixture was adjusted to pH 10 with an aqueous sodium hydroxide solution. The mixture was placed in a flask, heated to 80° C., and stirred for 1 hr while adding an aqueous sodium hydroxide solution as appropriate every 10 min to maintain pH 10. The mixture was adjusted to pH 3.5 with an aqueous hydrochloric acid solution, and the mixture was washed 3 times with hexane to remove fatty acid. The solution was neutralized with an aqueous sodium hydroxide solution, evaporated and filtered to remove sodium chloride. The viscous liquid was diluted with purified water to a concentration of 50% and used as an eye irritancy measurement sample.
Using three male Japanese white rabbits per sample, the above-mentioned eye irritancy measurement sample (0.1 mL) was instilled into the unilateral intracapsular conjunctiva of each test animal, and the upper and lower eyelids were gently closed and maintained for about 1 sec. The other eye was used as control without treatment. After instillation, the cornea, iris, conjunctiva and the like were observed 1, 6, 12 and 24 hr later.

**Q.** Which “eye irritancy of hydrolysate” value does the source give for `CCCCCCCC(=O)OCC(COC(=O)CCCCCCC)OC(=O)CCCCCCC` [Ex. 1, Glycerol tricaprylic acid ester] here?
**A.** Its value is “no problem”.

**Q.** Which “eye irritancy of hydrolysate” value does the source give for `CCCCCCCCCCCC(=O)OCC(O)CO` (stereo not drawn) [Ex. 7, Glycerol monolauric acid ester] here?
**A.** The value was “no problem”.

**Q.** How did the “eye irritancy of hydrolysate” value turn out when `CCCCCCCCC(=O)OCCO` [compound 4, ethylene glycol monopelargric acid ester, reference compound] was run?
**A.** The value was “problematic”.
